Source: patent US20080293699A1, “Inhibitors of thapsigargin-induced cell death” (priority 2007, published 2008)

How the values were obtained:
[1] = tested on: differentiated CSM14.1 cells; assay: ATP content assay, thapsigargin-treated differentiated CSM14.1 cells; assay type: cell-based, rat
Protocol: Of the 26 compounds shown in Table 9, 16 were subsequently confirmed to protect differentiated CSM14.1 cells from TG-induced cell death. For these assays, CSM14.1 cells were differentiated by culture in 2% FBS for 7 days at non-permissive temperature of 39° C. […] CSM14.1 cells were plated at 1,500 cells per well in 96-well plates, and cultured overnight at 32° C. (permissive temperature; FIG. 14, left) or at 39° C. (non-permissive temperature, FIG. 14, right) for 7 days. […] ATP content was measured, and data were expressed as a percentage of control cells treated only with 1% DMSO (mean ±SD; n=3). Two percent FBS was used during differentiation, but all assays were performed in 10% FBS.
(§1) For PC12, cells were stimulated with 20 ng/ml NGF for five days; for C17.2, cells were stimulated with serum reduction, and 1% N2 incubation for three days; for CSM14.1, cells were cultured at 39° C. for 5-7 days.
CSM14.1 cells were plated at 1,500 cells per well in 96-well plates and cultured at 39° C. (non-permissive temperature) for 7 days. […] ATP content was measured and data were expressed as a percentage of control cells treated with only 1% DMSO.

[2] = tested on: HeLa human cervical cancer; assay: Thapsigargin-induced death of HeLa cells, ATP content assay; assay type: cell-based
Protocol: (§2) In addition to CSM14.1 cells, when tested at 25 μM, Compound 5962123 protected by >50% against thapsigargin-induced death of several tumor cell lines (HeLa human cervical cancer, SW1 melanoma cell, PPC1, human prostate cancer), mouse neural stem cell C17.2 (both differentiated [neuronal phenotype] and non-differentiated [stem cell phenotype]) as determined by ATP content assay, and primary rat cortical neurons as determined by microscopy assay measuring the percentage of NeuN-immunopositive cells with either normal or apoptotic nuclear morphology (Hoechst dye staining).
as §1

[3] = tested on: SW1 melanoma cell; assay: Thapsigargin-induced death of SW1 cells, ATP content assay; assay type: cell-based, human
Protocol: as §2, §1

[4] = tested on: mouse neural stem cell C17.2; assay: Thapsigargin-induced death of C17.2 cells (undifferentiated and differentiated), ATP content assay; assay type: cell-based
Protocol: as §2, §1

[5] = tested on: primary rat cortical neurons; assay: Thapsigargin-induced death of primary cortical neurons, microscopy assay (NeuN, Hoechst); assay type: cell-based
Protocol: as §2
Description of secondary screens. The secondary screens used to characterize compound 5962123 (many of which were used to characterize all 11 benzodiazepines) are outlined above. Thirty-one secondary screens have been used to date to characterize compound 5962123. […] Finally, compound 2878746 inhibits thapsigargin-induced cell death of rat primary cortical neurons (identified by staining with NeuN), as determined by counting apoptotic […] (NeuN)-positive cells stained with the DNA-binding fluorochrome Hoechst dye to identify cells with condensed nuclear morphology indicative of apoptosis and evidence of neurite retraction.

[6] = tested on: ATF4; assay: Thapsigargin-induced expression of ATF4 (immunoblotting); assay type: cell-based, rat; settings: listed as CID-2878746
[7] = tested on: protein phosphatase 2B (Calcineurin); assay: In vitro phosphatase assay with immunoprecipitated ASK1 (ser 967 site) as substrate; assay type: biochemical; settings: 100 μM
[8] = tested on: Jnk-1 and Jnk-2; assay: c-Jun activation by purified Jnk-1 and Jnk-2, in vitro kinase assay; assay type: biochemical; settings: 50 μM compound
Protocol: C-Jun and p38 MAPK work downstream of the Ire1 pathway (see FIG. 21), we tested whether one of our hit compounds (6239507) inhibits autophosphorylation of any of kinases in this Ire1-ASK1-JNK/p38 MAPK pathway. […] An Ire1 autophosphorylation assay was performed. Immunoprecipitated Ire1 was incubated with DMSO (2%), 50 μM compound 6239507, or the positive control staurosporine (20 μM; STS) for 20 minutes at 30° C. followed by chilling on ice. 0.5 μCi of ^32P-γ-ATP was added to each tube and incubated at 30° C. for the indicated times. Kinase reactions were finished by adding sample buffer. Incorporation values of ^32P-γ-ATP were evaluated by a scintillation counter. An ASK1-MKK6-p38 coupled assay was also performed. Immunoprecipitated ASK1 was mixed with 1 μg MKK6 (Millipore) and 1 μg p38 MAPK (Sigma). Kinases were incubated with 2% DMSO, 50 μM compound 6239507, or 20 μM staurosporine (STS) in one tube for 20 minutes at 30° C. followed by ice chilling. 0.5 μCi of ^32P-γ-ATP was added to each tube and incubated at 30° C. for the indicated times. Kinase reactions were finished by adding sample buffer. Incorporation values of ^32P-γ-ATP were evaluated by a scintillation counter. C-Jun activation by purified Jnk-1 and Jnk-2 (Millipore) was confirmed with the same procedures.

[9] = thapsigargin 15 μM, ATP content, compound ≦25 μM

Compound	Protection of differentiated CSM14.1 cells from thapsigargin-induced death ([1]; compound 25 μM with 10 μM thapsigargin, Salubrinal 100 μM)	Cytoprotective activity, CSM 14.1 diff (Result) ([1]; thapsigargin 15 μM, compound ≦25 μM)	Protection against thapsigargin-induced death, HeLa ([2]; 25 μM, ATP content assay) [%]	Cytoprotective activity in thapsigargin-treated HeLa ([2]; ATP content assay)	Cytoprotective activity, HeLa (Result) [2, 9]	Protection against thapsigargin-induced death, SW1 ([3]; 25 μM, ATP content assay) [%]	Cytoprotective activity in thapsigargin-treated SW1 ([3]; ATP content assay)	Cytoprotective activity, SW1 (Result) [3, 9]	Activity in differentiated C17.2 cells treated with thapsigargin ([4]; 25 μM, ATP content assay)	Protection against thapsigargin-induced death, C17.2 ([4]; 25 μM, both differentiated and non-differentiated, ATP content assay) [%]	Cytoprotective activity, C17.2 diff (Result) ([4]; differentiated, thapsigargin 10 μM, ATP content, compound ≦25 μM)	Cytoprotective activity, C17.2 (Result) ([4]; undifferentiated, thapsigargin 10 μM, ATP content, compound ≦25 μM)	Protection against thapsigargin-induced death, primary rat cortical neurons ([5]; 25 μM, microscopy, NeuN-immunopositive cells, Hoechst nuclear morphology) [%]	Inhibition of thapsigargin-induced cell death of rat primary cortical neurons ([5]; counting apoptotic NeuN-positive cells, Hoechst dye)	Thapsigargin-induced expression of ATF4 [6]	Activity of protein phosphatase 2B (Calcineurin) [7]	JNK's activity on c-Jun [8]
CCN(CC)c1ccc(C2Nc3ccccc3NC3=C2C(=O)CC(c2ccccc2)C3)cc1 (centres unmarked) [Compound 5962123, 6-(4-diethylaminophenyl)-9-phenyl-5,6,8,9,10,11-hexahydrobenzo[c][1,5]benzodiazepin-7-one]	confirmed	+ (+indicates >50% rescue of cell viability relative to untreated cells not exposed to thapsigargin at compound concentration of ≦25 μM)	> 50	demonstrated	+ (+indicates >50% rescue of cell viability relative to untreated cells not exposed to thapsigargin at compound concentration of ≦25 μM)	> 50	demonstrated	+ (+indicates >50% rescue of cell viability relative to untreated cells not exposed to thapsigargin at compound concentration of ≦25 μM)	confirmed	> 50	+ (+indicates >50% rescue of cell viability relative to untreated cells not exposed to thapsigargin at compound concentration of ≦25 μM)	+ (+indicates >50% rescue of cell viability relative to untreated cells not exposed to thapsigargin at compound concentration of ≦25 μM)	> 50	inhibits	not inhibited	did not affect	
COc1ccc(C2CC(=O)C3=C(C2)Nc2ccccc2NC3c2cccc(Oc3ccccc3)c2)cc1OC (centres unmarked) [Compound 6239507]																	does not modulate
